pIC50: −log10 of the molar value. Like-named read-outs stand apart in the source and are kept apart here.
What was measured:
[1] = target: T1, Human CARM1 (PRMT4) (Homo sapiens, UniProt Q86X55); assay: CARM1 enzyme assay on peptide substrate (3H-SAM Flashplate); format: biochemical; details: CARM1 0.25 nM, 3H-SAM 30 nM, peptide 250 nM; read-out: Biochem IC50
T1 construct: Flag-CARM1-His was eluted with 200 ug/ml FLAG peptide in buffer A; made in house; host or cells: HEK 293F cells infected with recombinant baculovirus (pFastBacMam)
T1 sequence (Q86X55 other isoform, or with tags, fused parts or gaps): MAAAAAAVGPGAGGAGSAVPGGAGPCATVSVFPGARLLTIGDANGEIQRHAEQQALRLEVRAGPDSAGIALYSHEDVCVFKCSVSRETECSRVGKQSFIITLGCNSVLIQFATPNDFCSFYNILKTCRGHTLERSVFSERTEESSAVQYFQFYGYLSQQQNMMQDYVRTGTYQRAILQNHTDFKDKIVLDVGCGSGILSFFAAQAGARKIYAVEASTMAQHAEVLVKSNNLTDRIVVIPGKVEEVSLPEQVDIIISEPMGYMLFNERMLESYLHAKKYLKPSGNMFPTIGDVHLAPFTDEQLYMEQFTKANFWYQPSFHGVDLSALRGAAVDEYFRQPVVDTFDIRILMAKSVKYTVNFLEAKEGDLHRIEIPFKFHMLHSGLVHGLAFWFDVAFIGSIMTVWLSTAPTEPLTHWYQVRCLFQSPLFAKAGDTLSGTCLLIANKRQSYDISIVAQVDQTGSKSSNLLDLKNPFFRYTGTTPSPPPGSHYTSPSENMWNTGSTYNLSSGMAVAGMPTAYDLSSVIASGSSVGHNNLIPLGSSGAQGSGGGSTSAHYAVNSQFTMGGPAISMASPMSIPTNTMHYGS
Method in brief: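 Flag-CARM1-His (isoform 1, Δ539-561; HEK293F-expressed), 0.25 nM, preincubated 30 min RT with compound, then 30 nM 3H-SAM and 250 nM biotinylated H3(16-30) R26me1 peptide in pH 7.6 Bicine buffer, 2% DMSO. Stopped with 300 uM cold SAM; streptavidin Flashplate capture, cpm. % inhibition vs DMSO/1 mM SAH, 3- or 4-parameter fit.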

[2] = tested on: asymmetric di-methyl PABP1 in RKO cells; assay: RKO methylation assay (In Cell Western for asymmetric di-methyl PABP1); format: cell-based; details: 48 hours incubation, read-out: Cellular IC50
Method in brief: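 RKO cells treated 48 h at 37 °C, then fixed, methanol-permeabilized and probed for asymmetric di-methyl PABP1 (16 h, 4 °C) with DRAQ5 counterstain; 800/700 nm intensity ratio read.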

SMILES	pIC50 [1]	pIC50 ([2]; Homo sapiens)	pIC50 [2]
CNCC(O)COc1cccc(-c2nc(N3CCOCC3)c3cnn(C(C)(C)C)c3n2)c1 (stereo not drawn) [Example 20-5]	> 7.00	< 4.70	–
CCc1cc(OCC(O)CNC)cc(-c2cc(N3CCOCC3)n3ncc(C(C)C)c3n2)c1 (stereo not drawn) [Example 20-6]	6.00 to 7.00	< 4.70	–
CNCC(O)COc1cccc(-c2cc(N3CCOC3=O)n3ncc(C(C)C)c3n2)c1 (stereo not drawn) [Example 20-9]	6.00 to 7.00	< 4.70	–
CNCC(O)COc1cc(OC(C)C)cc(-c2cc(N3CCOCC3)c3cnn(C(C)C)c3n2)c1 (stereo not drawn) [Example 21-4]	> 7.00	< 4.70	–
CNCC(O)COc1cccc(-c2nc(NCc3ccncc3)c3cnn(C4CC4)c3n2)c1 (stereo not drawn) [Example 21-5]	6.00 to 7.00	< 4.70	–
CNCC(O)COc1cc(NC)cc(-c2cc(N3CCOCC3)n3ncc(C(C)C)c3n2)c1 (stereo not drawn) [Example 21-6]	> 7.00	< 4.70	–
CC(C)n1ncc2c(N3CCOCC3)cc(-c3cccc(SCC(O)CN)c3)nc21 (stereo not drawn) [Example 21-9]	6.00 to 7.00	< 4.70	–
CNCC(O)COc1cc(Cl)cc(-c2cc(NC3CCOCC3)c3c(C)nn(C(C)C)c3n2)c1 (stereo not drawn) [Example 22-4]	> 7.00	5.00 to 5.30	–
CNCC(O)COc1cccc(-c2nc(NCc3ccccn3)c3cnn(C4CC4)c3n2)c1 (stereo not drawn) [Example 22-5]	6.00 to 7.00	< 4.70	–
CNCC(O)COc1cc(OC)cc(-c2cc(N3CCOCC3)n3ncc(C(C)C)c3n2)c1 (stereo not drawn) [Example 22-6]	> 7.00	< 4.70	–
CNCC(O)COc1cc(OC)cc(-c2cc(N[C@H]3CCOC3)n3ncc(C(C)C)c3n2)c1 (stereo partly drawn) [Example 23-6]	> 7.00	< 4.70	–
CNCC(O)COc1cc(CO)cc(-c2cc(NC3CCOCC3)c3cnn(C(C)C)c3n2)c1 (stereo not drawn) [Example 23-9]	6.00 to 7.00	< 4.70	–
CC(C)n1ncc2c(N3CCOCC3)cc(-c3cc(OCC(O)CN)cc(OC(F)(F)F)c3)nc21 (stereo not drawn) [Example 24-4]	6.00 to 7.00	< 4.70	–
Cc1cc(CNc2nc(-c3cccc(OCC(O)CN)c3)nc3c2cnn3C2CC2)n(C)n1 (stereo not drawn) [Example 24-5]	> 7.00	< 4.70	–
CNCC(O)COc1cc(OC)cc(-c2cc(N[C@@H]3CCOC3)n3ncc(C(C)C)c3n2)c1 (stereo partly drawn) [Example 24-6]	> 7.00	< 4.70	–
CC(C)n1ncc2c(NS(=O)(=O)N(C)C)cc(-c3cccc(OCC(O)CN)c3)nc21 (stereo not drawn) [Example 24-9]	6.00 to 7.00	< 4.70	–
CNCC(O)COc1cc(OC)cc(-c2cc(N(C)C3CCOCC3)c3c(C)nn(C(C)C)c3n2)c1 (stereo not drawn) [Example 25-4]	> 7.00	4.70 to 5.00	–
CNCC(O)COc1cccc(-c2nc(NCc3ccn(C)n3)c3cnn(C4CC4)c3n2)c1 (stereo not drawn) [Example 25-5]	6.00 to 7.00	< 4.70	–
CNCC(O)COc1cc(OC)cc(-c2cc(N(C)CCOC)n3ncc(C(C)C)c3n2)c1 (stereo not drawn) [Example 25-6]	> 7.00	< 4.70	–
CC(C)n1ncc2c(N3CCOCC3)cc(-c3cc(OC[C@H](O)CN)cc(OC[C@H](O)CN)c3)nc21 [Example 25-9]	6.00 to 7.00	< 4.70	–
CNCC(O)COc1cc(Cl)cc(-c2cc(N3CCOC3=O)n3ncc(C(C)C)c3n2)c1 (stereo not drawn) [Example 26-6]	6.00 to 7.00	< 4.70	–
CNCC(O)COc1cc(C#N)cc(-c2cc(N3CCOCC3)n3ncc(C(C)C)c3n2)c1 (stereo not drawn) [Example 26-9]	6.00 to 7.00	< 4.70	–
CNCC(O)COc1cc(Cl)cc(-c2cc(N3CCOCC3)n3ncc(C(C)C)c3n2)c1 (stereo not drawn) [Example 27-6]	> 7.00	< 4.70	–
CNCC(O)COc1cccc(-c2cc(NS(=O)(=O)N(C)C)c3cnn(C(C)C)c3n2)c1 (stereo not drawn) [Example 27-9]	6.00 to 7.00	< 4.70	–
CNCC(O)COc1cc(OC(F)(F)F)cc(-c2cc(NC3CCOCC3)c3cnn(C(C)C)c3n2)c1 (stereo not drawn) [Example 28-4]	6.00 to 7.00	< 4.70	–
CNCC(O)COc1cc(Cl)cc(-c2cc(NC3CCOC3)n3ncc(C(C)C)c3n2)c1 (stereo not drawn) [Example 28-6]	> 7.00	< 4.70	–

SMILES	pIC50 [1]	pIC50 ([2]; Homo sapiens)	pIC50 [2]
CC(C)n1ncc2c(N3CCOCC3)cc(-c3cccc(NCC(O)CN)c3)nc21 (stereo not drawn) [Example 28-9]	6.00 to 7.00	< 4.70	–
CNCC(O)COc1cc(Cl)cc(-c2cc(N[C@@H]3CCOC3)n3ncc(C(C)C)c3n2)c1 (stereo partly drawn) [Example 29-6]	> 7.00	< 4.70	–
Cc1cc(C)c(CNC(=O)c2cc(-c3cccc(OCC(O)CN)c3)nc3nn(C(C)C)cc23)c(=O)[nH]1 (stereo not drawn) [Example 29-9]	6.00 to 7.00	< 4.70	–
CNCC(O)COc1cccc(-c2nc(NC3CCOCC3)c3cnn(C(C)(C)C)c3n2)c1 (stereo not drawn) [Example 30-5]	> 7.00	5.00 to 5.30	–
CNCC(O)COc1cc(Cl)cc(-c2cc(N(C)CCOC)n3ncc(C(C)C)c3n2)c1 (stereo not drawn) [Example 30-6]	> 7.00	< 4.70	–
CNCC(O)COc1cccc(-c2nc(NCc3cccc[n+]3[O-])c3cnn(C4CC4)c3n2)c1 (stereo not drawn) [Example 31-5]	6.00 to 7.00	< 4.70	–
CNCC(O)COc1cc(OC)cc(-c2cc(Nc3ncccn3)n3ncc(C(C)C)c3n2)c1 (stereo not drawn) [Example 31-6]	> 7.00	< 4.70	–
CC(C)n1ncc2c(N3CCOCC3)cc(-c3cccc(CCC(O)CN)c3)nc21 (stereo not drawn) [Example 31-9]	6.00 to 7.00	–	< 4.70
CNCC(O)COc1cccc(-c2nc(NCc3ccc[n+]([O-])c3)c3cnn(C4CC4)c3n2)c1 (stereo not drawn) [Example 32-5]	6.00 to 7.00	< 4.70	–
CNCC(O)COc1cccc(-c2cc(N3CC4(CCOCC4)C3)n3ncc(C(C)C)c3n2)c1 (stereo not drawn) [Example 32-6]	> 7.00	< 4.70	–
CNCC(O)COc1cccc(-c2nc(NCc3ccccn3)c3cnn(C(C)(C)C)c3n2)c1 (stereo not drawn) [Example 33-5]	> 7.00	< 4.70	–
C=Cc1cc(OCC(O)CNC)cc(-c2cc(NC3CCOCC3)n3ncc(C(C)C)c3n2)c1 (stereo not drawn) [Example 33-6]	6.00 to 7.00	< 4.70	–
CNCC(O)COc1cccc(-c2nc(NCc3cc(C)nn3C)c3cnn(C4CC4)c3n2)c1 (stereo not drawn) [Example 34-5]	> 7.00	< 4.70	–
CNCC(O)COc1cc(OC)cc(-c2cc(NC3CCOCC3)n3ncc(C(C)C)c3n2)c1 (stereo not drawn) [Example 34-6]	> 7.00	< 4.70	–
CNCC(O)COc1cc(OC)cc(-c2cc(N(C)[C@@H]3CCOC3)n3ncc(C(C)C)c3n2)c1 (stereo partly drawn) [Example 35-6]	> 7.00	< 4.70	–
CNCC(O)COc1cccc(-c2nc(N(C)C3CCOCC3)c3cnn(C(C)(C)C)c3n2)c1 (stereo not drawn) [Example 36-5]	> 7.00	< 4.70	–
CNCC(O)COc1cc(OC)cc(-c2cc(N(C)[C@H]3CCOC3)n3ncc(C(C)C)c3n2)c1 (stereo partly drawn) [Example 36-6]	> 7.00	< 4.70	–
NCC(O)COc1cccc(-c2nc(NCc3cccc4ccnn34)c3cnn(C4CC4)c3n2)c1 (stereo not drawn) [Example 37-5]	> 7.00	< 4.70	–
CNCC(O)COc1cc(OC)cc(-c2cc(N3CCC(O)CC3)n3ncc(C(C)C)c3n2)c1 (stereo not drawn) [Example 37-6]	6.00 to 7.00	< 4.70	–
Cc1cc(C)c(CNc2nc(-c3cccc(OCC(O)CN)c3)nc3c2cnn3C2CC2)c(=O)[nH]1 (stereo not drawn) [Example 38-5]	6.00 to 7.00	< 4.70	–
CNCC(O)COc1cc(Cl)cc(-c2cc(NC3C4COCC43)n3ncc(C(C)C)c3n2)c1 (stereo not drawn) [Example 38-6]	6.00 to 7.00	< 4.70	–
NCC(O)COc1cccc(-c2nc(NCc3cn4ccsc4n3)c3cnn(C4CC4)c3n2)c1 (stereo not drawn) [Example 39-5]	> 7.00	4.70 to 5.00	–
CNCC(O)COc1cc(Cl)cc(-c2cc(NC3CCOCC3)n3ncc(C(C)C)c3n2)c1 (stereo not drawn) [Example 39-6]	> 7.00	< 4.70	–
CNCC(O)COc1cc(Cl)cc(-c2cc(N(C)[C@@H]3CCOC3)n3ncc(C(C)C)c3n2)c1 (stereo partly drawn) [Example 40-6]	> 7.00	< 4.70	–
Cc1cccn2cc(CNc3nc(-c4cccc(OCC(O)CN)c4)nc4c3cnn4C3CC3)nc12 (stereo not drawn) [Example 41-5]	6.00 to 7.00	< 4.70	–

— patent US20170283440A1, “CARM1 INHIBITORS AND USES THEREOF” (Epizyme, Inc., priority 2014, published 2017)
